Assay: In vivo biodistribution in female Kunming mice
Details: for Biodistribution: Large Intestine / Biodistribution: Small Intestine / Biodistribution: Stomach: unit % ID
Experimental: Female Kunming mice (20-22 g, n=3) were fasted for 12 h before the experiment, and the purified radioactive ^99mTc complex 130 was dissolved in a normal saline (containing 10% ethanol) solution (about 100 μCi/mL). Female Kunming mice were injected with 100 μL of the above solution through the tail vein, and the mice were killed by cervical dislocation at 5, 15, 30, 60, and 120 min post-injection, respectively. Blood, brain, heart, liver, spleen, lung, kidney, muscle, bone, large intestine, small intestine, stomach and tail were collected, weighed and counted, and the count distribution of each tissue and organ was calculated (unit: % ID/g, the unit of large intestine, small intestine and stomach was % ID), and the data were the mean±standard deviation of three mice in each time phase. At the same time, 100 μL of the above solution was diluted to 10 mL, which was used as the % ID without deducting the tail count.
The corresponding radioactive ^99mTc complex 158 as the typical compounds of the general formula V in this application was selected to conduct an in vivo biodistribution study in female Kunming mice. The specific experimental method was shown in the experimental method of “In vivo biodistribution study of radioactive ^99mTc complex 130 in female Kunming mice” in Example 7 above.

COC(C)(C)C[N+]#[C][99Tc-5]([C]#[N+]CC(C)(C)OC)([C]#[N+]CC(C)(C)OC)([C]#[N+]CC(C)(C)OC)([C]#[N+]CC(C)(C)OC)[C]#[N+]CC(C)(C)OCCCS(=O)(=O)CCCCCS(=O)(=O)CCCSCCCCC(=O)O [^99mTc complex 158]
heart-to-blood ratios (assessment): moderate level | heart-to-lungs ratios (assessment): moderate level | myocardial clearance: fast | Biodistribution: Blood (5 min post-injection): 13.21 ± 2.84 ID %/g | Biodistribution: Bone (5 min post-injection): 2.31 ± 0.36 ID %/g | Biodistribution: Brain (5 min post-injection): 0.39 ± 0.14 ID %/g | Biodistribution: Heart (5 min post-injection): 4.19 ± 0.10 ID %/g | Biodistribution: Kidney (5 min post-injection): 7.80 ± 1.46 ID %/g | Biodistribution: Liver (5 min post-injection): 37.80 ± 6.80 ID %/g | Biodistribution: Lungs (5 min post-injection): 5.91 ± 0.89 ID %/g | Biodistribution: Muscle (5 min post-injection): 1.82 ± 0.16 ID %/g | Biodistribution: Spleen (5 min post-injection): 1.55 ± 0.01 ID %/g | Heart-to-Blood ratio (5 min post-injection): 0.32 | Heart-to-Liver ratio (5 min post-injection): 0.11 | Heart-to-Lungs ratio (5 min post-injection): 0.71 | Biodistribution: Large Intestine (5 min post-injection): 1.04 ± 0.37 % ID | Biodistribution: Small Intestine (5 min post-injection): 5.39 ± 0.84 % ID | Biodistribution: Stomach (5 min post-injection): 0.54 ± 0.19 % ID | Biodistribution: Blood (15 min post-injection): 5.47 ± 0.09 ID %/g | Biodistribution: Bone (15 min post-injection): 1.04 ± 0.38 ID %/g | Biodistribution: Brain (15 min post-injection): 0.14 ± 0.05 ID %/g | Biodistribution: Heart (15 min post-injection): 1.63 ± 0.02 ID %/g | Biodistribution: Kidney (15 min post-injection): 4.59 ± 0.68 ID %/g | Biodistribution: Liver (15 min post-injection): 33.35 ± 0.37 ID %/g | Biodistribution: Lungs (15 min post-injection): 2.69 ± 0.70 ID %/g | Biodistribution: Muscle (15 min post-injection): 1.10 ± 0.22 ID %/g | Biodistribution: Spleen (15 min post-injection): 0.86 ± 0.28 ID %/g | Heart-to-Blood ratio (15 min post-injection): 0.30 | Heart-to-Liver ratio (15 min post-injection): 0.05 | Heart-to-Lungs ratio (15 min post-injection): 0.61 | Biodistribution: Large Intestine (15 min post-injection): 0.67 ± 0.15 % ID | Biodistribution: Small Intestine (15 min post-injection): 16.67 ± 2.60 % ID | Biodistribution: Stomach (15 min post-injection): 0.46 ± 0.13 % ID | Biodistribution: Blood (30 min post-injection): 1.20 ± 0.1 ID %/g | Biodistribution: Bone (30 min post-injection): 0.37 ± 0.1 ID %/g | Biodistribution: Brain (30 min post-injection): 0.1 ± 0.04 ID %/g | Biodistribution: Heart (30 min post-injection): 0.91 ± 0.11 ID %/g | Biodistribution: Kidney (30 min post-injection): 2.22 ± 0.2 ID %/g | Biodistribution: Liver (30 min post-injection): 22.5 ± 3.2 ID %/g | Biodistribution: Lungs (30 min post-injection): 0.9 ± 0.04 ID %/g | Biodistribution: Muscle (30 min post-injection): 0.46 ± 0.1 ID %/g | Biodistribution: Spleen (30 min post-injection): 0.55 ± 0.1 ID %/g | Heart-to-Blood ratio (30 min post-injection): 0.76 | Heart-to-Liver ratio (30 min post-injection): 0.04 | Heart-to-Lungs ratio (30 min post-injection): 1.00 | Biodistribution: Large Intestine (30 min post-injection): 1.25 ± 0.1 % ID | Biodistribution: Small Intestine (30 min post-injection): 20.9 ± 4.6 % ID | Biodistribution: Stomach (30 min post-injection): 0.25 ± 0.1 % ID | Biodistribution: Blood (60 min post-injection): 0.42 ± 0.03 ID %/g | Biodistribution: Bone (60 min post-injection): 0.24 ± 0.04 ID %/g | Biodistribution: Brain (60 min post-injection): 0.06 ± 0.01 ID %/g | Biodistribution: Heart (60 min post-injection): 0.67 ± 0.09 ID %/g | Biodistribution: Kidney (60 min post-injection): 1.20 ± 0.10 ID %/g | Biodistribution: Liver (60 min post-injection): 22.8 ± 1.20 ID %/g | Biodistribution: Lungs (60 min post-injection): 0.50 ± 0.02 ID %/g | Biodistribution: Muscle (60 min post-injection): 0.31 ± 0.06 ID %/g | Biodistribution: Spleen (60 min post-injection): 0.24 ± 0.06 ID %/g | Heart-to-Blood ratio (60 min post-injection): 1.60 | Heart-to-Liver ratio (60 min post-injection): 0.03 | Heart-to-Lungs ratio (60 min post-injection): 1.34 | Biodistribution: Large Intestine (60 min post-injection): 1.31 ± 0.27 % ID | Biodistribution: Small Intestine (60 min post-injection): 34.24 ± 3.12 % ID | Biodistribution: Stomach (60 min post-injection): 0.38 ± 0.05 % ID | Biodistribution: Blood (120 min post-injection): 0.26 ± 0.01 ID %/g | Biodistribution: Bone (120 min post-injection): 0.15 ± 0.05 ID %/g | Biodistribution: Brain (120 min post-injection): 0.03 ± 0.02 ID %/g | Biodistribution: Heart (120 min post-injection): 0.52 ± 0.01 ID %/g | Biodistribution: Kidney (120 min post-injection): 0.80 ± 0.07 ID %/g | Biodistribution: Liver (120 min post-injection): 13.81 ± 0.59 ID %/g | Biodistribution: Lungs (120 min post-injection): 0.32 ± 0.06 ID %/g | Biodistribution: Muscle (120 min post-injection): 0.21 ± 0.03 ID %/g | Biodistribution: Spleen (120 min post-injection): 0.15 ± 0.07 ID %/g | Heart-to-Blood ratio (120 min post-injection): 2.00 | Heart-to-Liver ratio (120 min post-injection): 0.04 | Heart-to-Lungs ratio (120 min post-injection): 1.63 | Biodistribution: Large Intestine (120 min post-injection): 1.02 ± 0.22 % ID | Biodistribution: Small Intestine (120 min post-injection): 19.83 ± 1.14 % ID | Biodistribution: Stomach (120 min post-injection): 0.47 ± 0.10 % ID | absolute myocardial uptake (assessment) (after tail vein injection): low

From patent publication US20250114486A1, “MARKED FATTY ACID DERIVATIVE, PRECURSOR COMPOUND THEREOF, AND USE THEREOF IN CONTRAST AGENT” (BEIJING NORMAL UNIVERSITY, priority 2022, published 2025)
